Results as given in patent US12071434B2, “Heterocyclic compound” (Takeda Pharmaceutical Company Limited, priority 2018, dated 2024).

Molecular target: T1, human orexin type 2 receptor (Homo sapiens, UniProt O43614)
T1 construct: expressed in transfected cells
T1 sequence (O43614 1-444): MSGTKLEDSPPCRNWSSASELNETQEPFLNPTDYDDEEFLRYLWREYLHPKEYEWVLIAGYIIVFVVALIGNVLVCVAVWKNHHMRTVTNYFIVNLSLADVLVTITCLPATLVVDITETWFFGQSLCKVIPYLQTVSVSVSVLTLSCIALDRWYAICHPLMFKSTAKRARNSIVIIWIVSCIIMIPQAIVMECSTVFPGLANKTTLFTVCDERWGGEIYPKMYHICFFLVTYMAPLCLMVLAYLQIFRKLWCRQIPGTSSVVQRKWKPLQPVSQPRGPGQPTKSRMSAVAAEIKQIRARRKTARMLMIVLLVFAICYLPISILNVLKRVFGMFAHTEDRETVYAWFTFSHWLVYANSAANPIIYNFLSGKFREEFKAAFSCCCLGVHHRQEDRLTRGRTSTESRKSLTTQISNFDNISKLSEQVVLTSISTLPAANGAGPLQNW
Assay: Measurement of orexin type 2 receptor agonist activity (calcium fluorescence, Fluo-4 AM, FDSS) in CHO cells forcibly expressing human OX2 receptor
Assay type: cell-based
Conditions: test compound 3 μM, DMSO = 0%, orexin A (human) 10 nM = 100%
Procedure, shortened: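 CHO-dhfr cells stably expressing human OX2 receptor, loaded with Fluo-4 AM plus probenecid for 30 min at 37 °C, then 30 min at room temperature. Calcium fluorescence read for about 2 min 40 s after compound addition. Activity (%) scaled between DMSO (0%) and 10 nM human orexin A (100%).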

| Structure (SMILES) | 0X2R agonist activity (3 μM, %) [%] |
| --- | --- |
| CC(C)n1cnc2c(c1=O)C(Cc1cccc(-c3cccc(F)c3)c1)C(NS(C)(=O)=O)CC2 [Example 89, rel-N-[(5R,6S)-5-[(3′-fluoro[1,1′-biphenyl]-3-yl)methyl]-4-oxo-3-(propan-2-yl)-3,4,5,6,7,8-hexahydroisoquinazolin-6-yl]methanesulfonamide] | 101 |
| CCS(=O)(=O)N[C@H]1CCc2ncn(C(C)C)c(=O)c2[C@H]1Cc1cccc(-c2cccc(F)c2)c1F [Example 170, N-[(5R,6S)-5-[(2,3′-difluoro[1,1′-biphenyl]-3-yl)methyl]-4-oxo-3-(propan-2-yl)-3,4,5,6,7,8-hexahydroquinazolin-6-yl]ethanesulfonamide] | 87 |
| CC(C)n1cnc2c(c1=O)[C@@H](Cc1cccc(-c3cc(F)cc(F)c3)c1)[C@@H](NS(=O)(=O)C1CC1)CC2 [Example 175, N-[(5R,6S)-5-[(3′,5′-difluoro[1,1′-biphenyl]-3-yl)methyl]-4-oxo-3-(propan-2-yl)-3,4,5,6,7,8-hexahydroquinazolin-6-yl]cyclopropanesulfonamide] | 85 |
| CCS(=O)(=O)N[C@H]1CCc2ncn(C(C)C)c(=O)c2[C@H]1Cc1cccc(-c2cc(F)cc(F)c2)c1 [Example 177, N-[(5R,6S)-5-[(3′,5′-difluoro[1,1′-biphenyl]-3-yl)methyl]-4-oxo-3-(propan-2-yl)-3,4,5,6,7,8-hexahydroquinazolin-6-yl]ethanesulfonamide] | 95 |
| CC(C)n1cnc2c(c1=O)[C@@H](Cc1cccc(-c3cccc(F)c3)c1F)[C@@H](NS(=O)(=O)C1(F)CC1)CC2 [Example 181, N-[(5R,6S)-5-[(2,3′-difluoro[1,1′-biphenyl]-3-yl)methyl]-4-oxo-3-(propan-2-yl)-3,4,5,6,7,8-hexahydroquinazolin-6-yl]-1-fluorocyclopropane-1-sulfonamide] | 91 |
| CC(C)n1cnc2c(c1=O)[C@@H](Cc1cccc(-c3cc(F)cc(F)c3)c1F)[C@@H](NS(=O)(=O)C1(F)CC1)CC2 [Example 182, 1-fluoro-N-{(5R,6S)-4-oxo-3-(propan-2-yl)-5-[(2,3′,5′-trifluoro[1,1′-biphenyl]-3-yl)methyl]-3,4,5,6,7,8-hexahydroquinazolin-6-yl}cyclopropane-1-sulfonamide] | 101 |
| CC(C)n1cnc2c(c1=O)[C@@H](Cc1cccc(-c3ccccc3F)c1F)[C@@H](NS(=O)(=O)C1(F)CC1)CC2 [Example 183, N-[(5R,6S)-5-[(2,2′-difluoro[1,1′-biphenyl]-3-yl)methyl]-4-oxo-3-(propan-2-yl)-3,4,5,6,7,8-hexahydroquinazolin-6-yl]-1-fluorocyclopropane-1-sulfonamide] | 95 |
| CC(C)n1cnc2c(c1=O)[C@@H](Cc1cccc(-c3cccc(F)c3F)c1F)[C@@H](NS(=O)(=O)C1(F)CC1)CC2 [Example 184, 1-fluoro-N-{(5R,6S)-4-oxo-3-(propan-2-yl)-5-[(2,2′,3′-trifluoro[1,1′-biphenyl]-3-yl)methyl]-3,4,5,6,7,8-hexahydroquinazolin-6-yl}cyclopropane-1-sulfonamide] | 98 |
| CC(C)n1cnc2c(c1=O)C(Cc1cccc(-c3ccccc3)c1)C(NS(=O)(=O)C1(F)CC1)CC2 (stereo not drawn) [Example 185, rel-N-{5-[([1,1′-biphenyl]-3-yl)methyl]-4-oxo-3-(propan-2-yl)-3,4,5,6,7,8-hexahydroquinazolin-6-yl}-1-fluorocyclopropane-1-sulfonamide] | 95 |
| CC(C)n1cnc2c(c1=O)C(Cc1cccc(-c3cccc(F)c3)c1)C(NS(=O)(=O)C1(F)CC1)CC2 (stereo not drawn) [Example 186, rel-1-fluoro-N-{5-[(3′-fluoro[1,1′-biphenyl]-3-yl)methyl]-4-oxo-3-(propan-2-yl)-3,4,5,6,7,8-hexahydroquinazolin-6-yl}cyclopropane-1-sulfonamide] | 90 |
| CC(C)n1cnc2c(c1=O)[C@@H](Cc1cccc(-c3cccc(F)c3)c1)[C@@H](NS(=O)(=O)C1CC1)CC2 [Example 188, N-[(5R,6S)-5-[(3′-fluoro[1,1′-biphenyl]-3-yl)methyl]-4-oxo-3-(propan-2-yl)-3,4,5,6,7,8-hexahydroquinazolin-6-yl]cyclopropanesulfonamide] | 107 |
| CC(C)n1cnc2c(c1=O)C(Cc1cccc(-c3cccc(F)c3F)c1)C(NS(=O)(=O)C1(F)CC1)CC2 (stereo not drawn) [Example 191, rel-N-{5-[(2′,3′-difluoro[1,1′-biphenyl]-3-yl)methyl]-4-oxo-3-(propan-2-yl)-3,4,5,6,7,8-hexahydroquinazolin-6-yl}-1-fluorocyclopropane-1-sulfonamide] | 90 |
| CC(C)n1cnc2c(c1=O)[C@@H](Cc1cccc(-c3ccccc3F)c1)[C@@H](NS(=O)(=O)C1CC1)CC2 [Example 192, N-[(5R,6S)-5-[(2′-fluoro[1,1′-biphenyl]-3-yl)methyl]-4-oxo-3-(propan-2-yl)-3,4,5,6,7,8-hexahydroquinazolin-6-yl]cyclopropanesulfonamide] | 101 |

Second part, the compound after the results:

| 0X2R agonist activity (3 μM, %) [%] | Structure (SMILES) |
| --- | --- |
| 97 | CC(C)n1cnc2c(c1=O)[C@@H](Cc1cccc(-c3cccc(F)c3F)c1)[C@@H](NS(=O)(=O)C1CC1)CC2 [Example 193, N-[(5R,6S)-5-[(2′,3′-difluoro[1,1′-biphenyl]-3-yl)methyl]-4-oxo-3-(propan-2-yl)-3,4,5,6,7,8-hexahydroquinazolin-6-yl]cyclopropanesulfonamide] |
| 91 | CC(C)n1cnc2c(c1=O)C(Cc1csc(-c3ccccc3)n1)C(NS(=O)(=O)C1(F)CC1)CC2 (stereo not drawn) [Example 194, rel-1-fluoro-N-{4-oxo-5-[(2-phenyl-1,3-thiazol-4-yl)methyl]-3-(propan-2-yl)-3,4,5,6,7,8-hexahydroquinazolin-6-yl}cyclopropane-1-sulfonamide] |
| 91 | CC(C)n1cnc2c(c1=O)[C@@H](Cc1cccc(-c3cccc(F)c3F)c1F)[C@@H](NS(=O)(=O)CF)CC2 [Example 196, 1-fluoro-N-{(5R,6S)-4-oxo-3-(propan-2-yl)-5-[(2,2′,3′-trifluoro[1,1′-biphenyl]-3-yl)methyl]-3,4,5,6,7,8-hexahydroquinazolin-6-yl}methanesulfonamide] |
| 90 | CC(C)n1cnc2c(c1=O)[C@@H](Cc1cccc(-c3cc(F)cc(F)c3)c1F)[C@@H](NS(=O)(=O)CF)CC2 [Example 199, 1-fluoro-N-{(5R,6S)-4-oxo-3-(propan-2-yl)-5-[(2,3′,5′-trifluoro[1,1′-biphenyl]-3-yl)methyl]-3,4,5,6,7,8-hexahydroquinazolin-6-yl}methanesulfonamide] |
| 89 | CCS(=O)(=O)N[C@H]1CCc2ncn(C(C)C)c(=O)c2[C@H]1Cc1cccc(-c2cccc(F)c2F)c1 [Example 200, N-[(5R,6S)-5-[(2′,3′-difluoro[1,1′-biphenyl]-3-yl)methyl]-4-oxo-3-(propan-2-yl)-3,4,5,6,7,8-hexahydroquinazolin-6-yl]ethanesulfonamide] |
| 95 | CC(C)n1c(=O)c2c(n1C)CCC(NS(C)(=O)=O)C2Cc1cccc(-c2ccccc2)c1 [Example 208, rel-N-[(4aR,5S)-4-[([1,1′-biphenyl]-3-yl)methyl]-1-methyl-3-oxo-2-(propan-2-yl)-2,3,4,5,6,7-hexahydro-1H-indazol-5-yl]methanesulfonamide] |
